Values after ≈ are worked out from the molar mass of the structure shown. Starred links: 1 amine or outer side, 2 acyl side, 3 side chain; linkers in the order of their positions; H or OH if unused. Non-standard residues stand in square brackets, D forms with d. Residues, ends and D or L forms follow the SMILES beside them. *: point of attachment. 1Nal = N[C@@H](Cc1cccc2ccccc12)C(=O)O; Ethylenediamine = C(CN[*:2])N[*:1]; Palmitoyl = CCCCCCCCCCCCCCCC(=O)*; Lauroyl = CCCCCCCCCCCC(=O)*; Hexanoyl = CCCCCC(=O)*
Tests used:
Assay type in all cases: cell-based
[1] = system: Candida albicans ATCC 18804; assay: MIC in yeasts, NCCLS M27-A2 broth microdilution, RPMI 1640 (Table 9, letter e); conditions: ATCC 18804
Description: Briefly, RPMI 1640 supplemented with glutamine and phenol red as a pH indicator was used in the broth microdilution method. A 96-well plate was inoculated so that the final inoculum of yeast for each well contained between 0.5×10^3 and 2.5×10^3 CFU/milliliter. […] Plates were incubated for 24 to 48 hours at 37° C. The lowest concentration of peptide that contained no visible growth was determined as the MIC. MIC values that utilized this method of MIC determination are indicated in Table 9 with a subscript letter “e.” “Peptide Number” corresponds to peptide compositions and corresponding designations in Table 3.

Salmonella dublin (Lane) = assay: MIC, NCCLS M7-A6 broth microdilution (Table 9, no superscript)
In short: (§1)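 Values come from a broth microdilution assay run in cation-adjusted Mueller Hinton broth with an inoculum of 5×10^5 to 1×10^6 CFU/milliliter, incubated overnight at 37° C and read as absence of visible turbidity.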

[2] = system: Pseudomonas aeruginosa ATCC 27853; assay: as above; conditions: ATCC 27853
In short: as §1

[3] = system: Escherichia coli ATCC 25922; assay: as above; conditions: ATCC 25922
In short: as §1

[4] = system: Staphylococcus epidermidis ATCC 12228; assay: as above; conditions: ATCC 12228
In short: as §1

[5] = system: Staphylococcus aureus ATCC 29213; assay: MIC, NCCLS M7-A6 broth microdilution, cation-adjusted Mueller Hinton broth (Table 9, no superscript); conditions: ATCC 29213
In short: as §1

Row | MIC C. albicans [1] | MIC S. dublin (Salmonella dublin (Lane)) | MIC P. aeruginosa [2] | MIC E. coli [3] | MIC S. epidermidis [4] | MIC S. aureus [5] | SMILES
1 | >64e ug/mL | >64 µg/mL | >64 µg/mL | >64 µg/mL | >64 µg/mL | >64 µg/mL | CCCCCCCCCCCC(=O)N[C@H](CO)C(=O)N[C@H](CCCNC(=N)N)C(=O)N[C@H](Cc1c[nH]c2ccccc12)C(=O)N[C@H](CCCNC(=N)N)C(=O)N[C@H](CC(=O)O)C(=O)N[C@@H](C(=O)N[C@H](C)C(N)=O)C(C)C [Peptide 121, Lauryl-srwrdva-NH2] (Lauroyl-[dS][dR][dW][dR][dD][dV][dA]-NH2)
2 | 64e ug/mL | >64 µg/mL | >64 µg/mL | >64 µg/mL | >64 µg/mL | >64 µg/mL | CCCCCCCCCCCC(=O)N[C@H](CCCNC(=N)N)C(=O)N[C@H](CC(=O)O)C(=O)N[C@@H](C(=O)N[C@H](C)C(=O)N[C@H](CCCNC(=N)N)C(=O)N[C@H](CC(N)=O)C(=O)N[C@H](Cc1ccccc1)C(N)=O)C(C)C [Peptide 124, Lauryl-rdvarnf-NH2] (Lauroyl-[dR][dD][dV][dA][dR][dN][dF]-NH2)
3 | 2e ug/mL | >64 µg/mL | >64 µg/mL | >64 µg/mL | >64 µg/mL | >64 µg/mL | CCCCCCCCCCCC(=O)N[C@@H](CCCNC(=N)N)C(=O)N[C@@H](CO)C(=O)N[C@@H](CCCNC(=N)N)C(=O)N[C@@H](Cc1c[nH]c2ccccc12)C(=O)N[C@@H](CCCNC(=N)N)C(=O)N[C@@H](CC(=O)O)C(=O)N[C@H](C(=O)N[C@@H](CC(C)C)C(=O)N[C@@H](CCCNC(=N)N)C(=O)N[C@@H](CC(N)=O)C(=O)N[C@@H](Cc1ccccc1)C(=O)N[C@@H](CC(C)C)C(=O)N[C@@H](CCCNC(=N)N)C(=O)N[C@@H](CC(C)C)C(=O)N[C@@H](CC(C)C)C(N)=O)C(C)C [Peptide 138, Lauryl-RSRWRDVLRNFLRLL-NH2] (Lauroyl-RSRWRDVLRNFLRLL-NH2)
4 | >64e ug/mL | >64 µg/mL |  |  |  | >64 µg/mL | CCCCCCCCCCCC(=O)N[C@@H](Cc1c[nH]c2ccccc12)C(=O)N[C@@H](CCCNC(=N)N)C(=O)N[C@@H](CC(=O)O)C(=O)N[C@H](C(=O)N[C@@H](C)C(=O)N[C@@H](CCCNC(=N)N)C(=O)N[C@@H](CC(N)=O)C(=O)N[C@@H](Cc1ccccc1)C(=O)N[C@@H](CCSC)C(=O)N[C@@H](CCCNC(=N)N)C(N)=O)C(C)C [Peptide 112, Lauryl-WRDVARNFMR-NH2] (Lauroyl-WRDVARNFMR-NH2)
5 | 64e ug/mL |  |  |  |  |  | CCCCCC(=O)N[C@H](CCCNC(=N)N)C(=O)N[C@H](CO)C(=O)N[C@H](CCCNC(=N)N)C(=O)N[C@H](Cc1c[nH]c2ccccc12)C(=O)N[C@H](CCCNC(=N)N)C(=O)N[C@H](CC(=O)O)C(=O)N[C@@H](C(=O)N[C@H](C)C(=O)N[C@H](CCCNC(=N)N)C(=O)N[C@H](CC(N)=O)C(=O)N[C@H](Cc1ccccc1)C(=O)N[C@H](CC(C)C)C(=O)N[C@H](CCCNC(=N)N)C(N)=O)C(C)C [Peptide 251, Hexyl-rsrwrdvarnflr-NH2] (Hexanoyl-[dR][dS][dR][dW][dR][dD][dV][dA][dR][dN][dF][dL][dR]-NH2)
6 |  | >64 µg/mL | >64 µg/mL | >64 µg/mL | 16 µg/mL (≈ 8.73 µM) | >64 µg/mL | CCCCCCCCCCCC(=O)N[C@H](CCCNC(=N)N)C(=O)N[C@H](CO)C(=O)N[C@H](CCCNC(=N)N)C(=O)N[C@H](CO)C(=O)N[C@H](CCCNC(=N)N)C(=O)N[C@H](CC(=O)O)C(=O)N[C@@H](C(=O)N[C@H](C)C(=O)N[C@H](CCCNC(=N)N)C(=O)N[C@H](CC(N)=O)C(=O)N[C@H](Cc1ccccc1)C(=O)N[C@H](CCSC)C(=O)N[C@H](CCCNC(=N)N)C(N)=O)C(C)C [Peptide 232, Lauryl-rsrsrdvarnfmr-NH2] (Lauroyl-[dR][dS][dR][dS][dR][dD][dV][dA][dR][dN][dF][dM][dR]-NH2)
7 |  | 32 µg/mL (≈ 15.3 µM) | 64 µg/mL (≈ 30.5 µM) | >64 µg/mL | 4 µg/mL (≈ 1.91 µM) | 32 µg/mL (≈ 15.3 µM) | CCCCCCCCCCCCCCCC(=O)NCCCC[C@H](NC(=O)[C@H](CCCNC(=N)N)NC(=O)[C@H](CC(C)C)NC(=O)[C@H](Cc1ccccc1)NC(=O)[C@H](CC(N)=O)NC(=O)[C@H](CCCNC(=N)N)NC(=O)[C@H](C)NC(=O)[C@@H](NC(=O)[C@H](CC(=O)O)NC(=O)[C@H](CCCNC(=N)N)NC(=O)[C@H](Cc1c[nH]c2ccccc12)NC(=O)[C@H](CCCNC(=N)N)NC(=O)[C@H](CO)NC(=O)[C@@H](N)CCCNC(=N)N)C(C)C)C(N)=O [Peptide 182, H2N-RSRWRDVARNFLRK(Palmitoyl)-NH2] (H-RSRWRDVARNFLRK(Palmitoyl)-NH2)
8 |  | >64 µg/mL | >64 µg/mL | >64 µg/mL | 64 µg/mL (≈ 31.8 µM) | >64 µg/mL | CCCCCCCCCCCCCCCC(=O)NCCNC(=O)[C@H](CCCNC(=N)N)NC(=O)[C@H](CC(C)C)NC(=O)[C@H](Cc1ccccc1)NC(=O)[C@H](CC(N)=O)NC(=O)[C@H](CCCNC(=N)N)NC(=O)[C@H](C)NC(=O)[C@@H](NC(=O)[C@H](CC(=O)O)NC(=O)[C@H](CCCNC(=N)N)NC(=O)[C@H](Cc1c[nH]c2ccccc12)NC(=O)[C@H](CCCNC(=N)N)NC(=O)[C@H](CO)NC(=O)[C@@H](N)CCCNC(=N)N)C(C)C [Peptide 172, H2N-RSRWRDVARNFLR-Ethylamidopalmitoyl] (H-RSRWRDVARNFLR-{Ethylenediamine-Palmitoyl}; C-terminus assumed)
9 |  | 8 µg/mL (≈ 3.89 µM) | >64 µg/mL | 64 µg/mL (≈ 31.1 µM) | 4 µg/mL (≈ 1.94 µM) | 32 µg/mL (≈ 15.6 µM) | CCCCCCCCCCCC(=O)N[C@@H](CCCNC(=N)N)C(=O)N[C@@H](CO)C(=O)N[C@@H](CCCNC(=N)N)C(=O)N[C@@H](Cc1c[nH]c2ccccc12)C(=O)N[C@@H](CCCNC(=N)N)C(=O)N[C@@H](CC(=O)O)C(=O)N[C@H](C(=O)N[C@@H](Cc1cccc2ccccc12)C(=O)N[C@@H](CCCNC(=N)N)C(=O)N[C@@H](CC(N)=O)C(=O)N[C@@H](Cc1ccccc1)C(=O)N[C@@H](CCSC)C(=O)N[C@@H](CCCNC(=N)N)C(N)=O)C(C)C [Peptide 151, Lauryl-RSRWRDVZRNFMR-NH2 Z = 1-naphthylalanine] (Lauroyl-RSRWRDV[1Nal]RNFMR-NH2)
10 |  | >64 µg/mL | 64 µg/mL (≈ 32.5 µM) | >64 µg/mL | 4 µg/mL (≈ 2.03 µM) | 32 µg/mL (≈ 16.2 µM) | CCCCCCCCCCCCCCCC(=O)N[C@H](CCCNC(=N)N)C(=O)N[C@H](CO)C(=O)N[C@H](CCCNC(=N)N)C(=O)N[C@H](Cc1c[nH]c2ccccc12)C(=O)N[C@H](CCCNC(=N)N)C(=O)N[C@H](CC(=O)O)C(=O)N[C@@H](C(=O)N[C@H](C)C(=O)N[C@H](CCCNC(=N)N)C(=O)N[C@H](CC(N)=O)C(=O)N[C@H](Cc1ccccc1)C(=O)N[C@H](CC(C)C)C(=O)N[C@H](CCCNC(=N)N)C(N)=O)C(C)C [Peptide 254, Palmityl-rsrwrdvarnflr-NH2] (Palmitoyl-[dR][dS][dR][dW][dR][dD][dV][dA][dR][dN][dF][dL][dR]-NH2)

Source: patent US20050282755A1, “Compositions having antimicrobial activity and uses thereof” (priority 2004, published 2005)
